Measured values taken from patent US11241500B2, “HSP90-targeting conjugates and formulations thereof” (TARVEDA THERAPEUTICS, INC., priority 2016, dated 2022).
Like-named read-outs stand apart in the source and are kept apart here. Values belong to the molecule of their own block, whether it stands above or below them.

Experiments:
[1] = test system: NCI-H460 (human non-small cell lung carcinoma); assay: PI3K viability assay, NCI-H460 cells; format: cell-based
Protocol: (§1) PI3K viability assays were carried out on the payloads and conjugates. HCT-116 (human colon carcinoma), NCI-H460 (human non-small cell lung carcinoma), and NCI-H1048 (small cell lung cancer) cells were treated with conjugates and payloads for 4 hours. After 4 hours, compounds were washed out and cells assayed for viability 72 hrs post wash out.

[2] = test system: HCT-116 (human colon carcinoma); assay: PI3K viability assay, HCT-116 cells; format: cell-based
Protocol: as §1

[3] = test system: NCI-H1048 (small cell lung cancer); assay: PI3K viability assay, NCI-H1048 cells; format: cell-based; settings: Homo sapiens
Protocol: as §1

[4] = Stability of PARP inhibiting (olaparib) conjugates in plasma and tumor tissue, release of olaparib; format: in vitro ADME; settings: for Release of olaparib in plasma and tumor: plasma and tumor tissues, FIG. 1A-E
Protocol: Stabilities of conjugates comprising PARP inhibitor olaparib and HSP90 binding moieties were studied and the conversions of the conjugates to Olaparib were monitored.
In one study, concentrations of Compounds 4, 5, 6 and olaparib released from them in plasma and tumor tissue were monitored (FIG. 1A, FIG. 1B, and FIG. 1C). The linkers were cleaved to release olaparib, thus concentrations of olaparib increased over time. Half times of Compounds 4, 5, and 6 were calculated. […]

[5] = test system: HCT-116, NCI-H460, and NCI-H1048 cells; assay: PI3K viability assays, summary over the three cell lines; format: cell-based, human; settings: 4 hours treatment, viability 72 hrs post wash out
Protocol: as §1

Caspase-9 = assay: PI3K Caspase-9 assay with HCT-116 cells; format: cell-based, human; settings: 4 hour treatment, assayed 24, 48, 72 hrs
Protocol: Caspase-9 is activated during apoptosis and is an indicator of apoptosis and cytokine processing. PI3K Caspase-9 assay was conducted with HCT-116 cells. HCT-116 cells were treated with conjugates and payloads for 4 hours. After 4 hours, compounds were washed out and cells were assayed for Caspase-9 24, 48, 72, and 144 hrs. Untreated cells were not viable at 144 hrs. Caspase-9 levels 24 hours, 48 hours, and 72 hours after 4 hour treatment with Compound 10, Compound 12, Compound 13, PF-0461502, Compound 11, T-1634, and BAY80-6946 were shown in FIG. 3.

[6] = In vivo tumor PK study, HCT116 colon cancer tumor line mouse model; settings: single dose at 0 hours, FIG. 4
Protocol: (§2) A tumor PK study was conducted with HSP90-binding conjugate Compound 12 in a HCT116 colon cancer tumor line mouse model. The payload on Compound 12 is the PI3K inhibitor PI-103. Both PI-103 and Compound 12 were given as a single dose at 0 hours to separate groups of mice and their concentrations in tumors were collected over time.

[7] = In vivo tumor PK study, MDA-MB-231 breast cancer tumor line mouse model
Protocol: as §2, with “MDA-MB-231 breast” for “HCT116 colon”

[8] = Stability of PI3K inhibiting conjugates at 37° C. in plasma and tumor homogenates
Source text: Stabilities of conjugates comprising PI3K inhibitors and HSP90 binding moieties were studied.

[9] = NCI-H460, 4 hours treatment, wash out, viability 72 hrs post wash out, Run 1, read-out: IC50 NCI-H460 Run 1
[10] = HCT-116, 4 hours treatment, wash out, viability 72 hrs post wash out, Run 1, read-out: IC50 HCT-116 Run 1
[11] = NCI-H1048, 4 hours treatment, wash out, viability 72 hrs post wash out, Run 1, read-out: IC50 NCI-H1048 Run 1
[12] = plasma, Table 3, read-out: Plasma t1/2 (converted)
[13] = tumor tissue, Table 3, read-out: Tumor t1/2 (converted)
[14] = NCI-H460, read-out: IC50 NCI-H460 Run 2
[15] = HCT-116, read-out: IC50 HCT-116 Run 2
[16] = NCI-H1048, read-out: IC50 NCI-H1048 Run 2
[17] = NCI-H460, 4 hours treatment, wash out, viability 72 hrs post wash out, Run 2, read-out: IC50 NCI-H460 Run 2
[18] = NCI-H1048, 4 hours treatment, wash out, viability 72 hrs post wash out, Run 2, read-out: IC50 NCI-H1048 Run 2
[19] = plasma, Table 1, read-out: Plasma t1/2 (converted)
[20] = tumor tissue, Table 1, read-out: Tumor t1/2 (converted)
[21] = HCT-116, 4 hours treatment, wash out, viability 72 hrs post wash out, Run 2, read-out: IC50 HCT-116 Run 2

Structure (SMILES): CC(C)c1cc(-c2nnc(O)n2-c2ccc(CN3CCN(C(=O)NC(CSSCCNC(=O)Oc4cccc(-c5nc(N6CCOCC6)c6oc7ncccc7c6n5)c4)C(N)=O)CC3)cc2)c(O)cc1O (stereo not drawn) [Compound 13]
Activity in viability assays relative to payload [5]: retained activity similar to PI-103 payload
IC50 [1, 14]: 8.2 µM
IC50 [2, 15]: 10.7 µM
Caspase-9 signal (Caspase-9): Lack or decrease in signal
IC50 [3, 16]: 2.9 µM

Structure (SMILES): Oc1cccc(-c2nc(N3CCOCC3)c3oc4ncccc4c3n2)c1 [PI-103, reference compound]
Concentrations in tumors over time [6]: detected at 1 hour and then fell below limit of detection
Concentrations in tumors over time ([7]; mouse, in vivo): detected at 1 hour and then fell to a low level at 24 h
IC50 [1, 9]: 2.85 µM
IC50 [1, 17]: 4.34 µM
IC50 [2, 10]: ~16500 µM
IC50 [3, 11]: 1.94 µM
IC50 [3, 18]: 2.5 µM

Structure (SMILES): CC(C)c1cc(-c2nnc(O)n2-c2ccc(CN3CCN(C(=O)Oc4cccc(-c5nc(N6CCOCC6)c6oc7ncccc7c6n5)c4)CC3)cc2)c(O)cc1O [Compound 12]
Concentrations in tumors over time [6]: accumulation of the conjugate, retention of the conjugate and sustained release of the payload over time
Activity in viability assays relative to payload [5]: retained activity similar to PI-103 payload
Concentrations in tumors over time ([7]; single dose at 0 hours, MDA-MB-231 tumor, FIG. 5): accumulation of the conjugate, retention of the conjugate and sustained release of the payload over time
IC50 [1, 14]: 1.95 µM
IC50 [2, 15]: 3.94 µM
Caspase-9 signal (Caspase-9): appears to retain activity similar to payload (PI-103) and ligand (ganetespib)
IC50 [3, 16]: 1.27 µM

Structure (SMILES): COc1ccc(-c2cc3c(C)nc(N)nc3n([C@H]3CC[C@H](OCCOC(=O)N4CCC(CCn5ccc6cc(-n7c(O)nnc7-c7cc(C(C)C)c(O)cc7O)ccc65)CC4)CC3)c2=O)cn1 [Compound 11]
IC50 [1, 9]: 3.64 µM
IC50 [1, 17]: 3.66 µM
IC50 [2, 10]: 10.2 µM
IC50 [2, 21]: 5.59 µM
Cleavage of carbamate groups [8]: cleaved in plasma by carboxylesterase
Stability in plasma versus tumor homogenates [8]: less stable in plasma than in tumor homogenates
IC50 [3, 11]: 1.77 µM
IC50 [3, 18]: 1.99 µM

Structure (SMILES): CC(C)c1cc(-c2nnc(O)n2-c2ccc3c(ccn3CCC3CCN(C(=O)Oc4cccc(-c5nc(N6CCOCC6)c6oc7ncccc7c6n5)c4)CC3)c2)c(O)cc1O [Compound 10]
Activity in viability assays relative to payload [5]: appeared to lose activity
IC50 [1, 9]: ~3220 µM
IC50 [2, 21]: ~15500 µM
Stability in plasma versus tumor homogenates ([8]; 37° C.): less stable in plasma than in tumor homogenates
Cleavage of carbamate groups ([8]; plasma): cleaved in plasma by carboxylesterase
Caspase-9 signal (Caspase-9): Lack or decrease in signal
IC50 [3, 11]: 40.4 µM
IC50 [3, 18]: ~9160 µM

Further lines, with some results ahead:

IC50 [1, 9]: 0.62 µM
IC50 [2, 10]: 3.42 µM
IC50 [3, 11]: 0.13 µM
Structure (SMILES): COc1c(OCCCN2CCOCC2)ccc2c1N=C(NC(=O)c1cnc(N)nc1)N1CCN=C21 [BAY80-6946, Copanlisib, reference compound]

Release of olaparib in plasma and tumor [4]: release olaparib in plasma and tumor
half-life [4, 12]: 43 h
half-life [4, 13]: 4 h
Structure (SMILES): CC(C)c1cc(-c2nnc(O)n2-c2ccc(CN3CCN(CCC(C)(C)SSCCOC(=O)N(CCN(C)C)Cn4nc(Cc5ccc(F)c(C(=O)N6CCN(C(=O)C7CC7)CC6)c5)c5ccccc5c4=O)CC3)cc2)c(O)cc1O [Compound 7]

IC50 [1, 9]: 0.19 µM
IC50 [2, 10]: 1.5 µM
IC50 [3, 11]: 0.21 µM
Structure (SMILES): COc1ncc(-c2ccc3nccc(-c4ccnnc4)c3c2)cc1NS(=O)(=O)c1ccc(F)cc1F [GSK-2126458, Omipalisib, reference compound]

Release of olaparib in plasma and tumor [4]: release olaparib in plasma and tumor
half-life [4, 19]: 4.8 h
half-life [4, 20]: 0.27 h
Structure (SMILES): CC(C)c1cc(-c2nnc(O)n2-c2ccc3c(ccn3CCC3CCN(CCCSSCCOC(=O)N(CCN(C)C)Cn4nc(Cc5ccc(F)c(C(=O)N6CCN(C(=O)C7CC7)CC6)c5)c5ccccc5c4=O)CC3)c2)c(O)cc1O [Compound 6]

IC50 [1, 9]: 8.98 µM
IC50 [1, 17]: 3.53 µM
IC50 [2, 10]: 45.4 µM
IC50 [2, 21]: 11.3 µM
IC50 [3, 11]: 3.36 µM
IC50 [3, 18]: 2.63 µM
Structure (SMILES): COc1ccc(-c2cc3c(C)nc(N)nc3n([C@H]3CC[C@H](OCCO)CC3)c2=O)cn1 [PF-04691502, reference compound]

Release of olaparib in plasma and tumor [4]: release olaparib in plasma and tumor
half-life [4, 12]: 46 h
half-life [4, 13]: 24 h
Structure (SMILES): CC(C)c1cc(-c2nnc(O)n2-c2ccc(CN3CCN(CCC(C)(C)SSc4ccc(COC(=O)N(CCN(C)C)Cn5nc(Cc6ccc(F)c(C(=O)N7CCN(C(=O)C8CC8)CC7)c6)c6ccccc6c5=O)cc4)CC3)cc2)c(O)cc1O [Compound 8]

Release of olaparib in plasma and tumor [4]: release olaparib in plasma and tumor
half-life [4, 19]: 4.5 h
half-life [4, 20]: 0.64 h
Structure (SMILES): CC(C)c1cc(-c2nnc(O)n2-c2ccc3c(ccn3CCC3CCN(CCC(C)(C)SSCCOC(=O)NCn4nc(Cc5ccc(F)c(C(=O)N6CCN(C(=O)C7CC7)CC6)c5)c5ccccc5c4=O)CC3)c2)c(O)cc1O [Compound 4]

Release of olaparib in plasma and tumor [4]: release olaparib in plasma and tumor
half-life [4, 19]: 35 h
half-life [4, 20]: 4.5 h
Structure (SMILES): CC(C)c1cc(-c2nnc(O)n2-c2ccc3c(ccn3CCC3CCN(CCC(C)(C)SSCCOC(=O)N(CCN(C)C)Cn4nc(Cc5ccc(F)c(C(=O)N6CCN(C(=O)C7CC7)CC6)c5)c5ccccc5c4=O)CC3)c2)c(O)cc1O [Compound 5]
Relative stability in plasma and tumor ([4]; plasma and tumor): more stable than Compound 4 and Compound 6 in both plasma and tumor
